No end group written: not given here.
Experiments:
[1] = test system: VEGF receptors; assay: VEGF receptors binding assay ([125I]-VEGF competition on BAEC membranes); design: species or system bovine
Description: VEGF receptors binding and activation. a) VEGF competitive binding on BAEC. 1 μg of membrane protein was plated with QK and [^125I]-VEGF (500000 cpm, 10^−10 M). b) KDR activation. After stimulation total KDR was immunoprecipitated from a whole-cell protein extracts and phospho-tyrosine was visualized by a specific antibody, anti-rabbit HRP-conjugated secondary antibody and standard chemiluminescence. c) Flt-1 activation. After stimulation total Flt-1 was immunoprecipitated from a whole-cell protein extracts and phospho-tyrosine was visualized by specific antibody, anti-rabbit HRP-conjugated secondary antibody and standard chemiluminescence.
VEGF receptors binding assay. Cells were homogenized in lysis buffer (12.5 mM Tris pH 6.8, 5 mM EDTA, 5 mM EGTA) and membranes were separated from the cytosol fraction by centrifugation. Membranes were suspended in binding buffer (75 mM Tris, 12.5 mM MgCl2, 2 mM EDTA) and an equal amount of membrane protein (1 μg) was plated in 96 well plates with QK (10^−13 to 10^−8 M) and [^125I]-VEGF (Amersham). VEGF binding was evaluated with a y-counter.
VEGF receptors binding assay. To verify the biological behavior of QK peptide, we tested its ability to compete for the binding sites of VEGF on cell membranes (FIG. 1a). We competed membranes, obtained from isolated BAEC, with iodinated VEGF and then with increasing amount of QK.

[2] = test system: ERK1/2; assay: ERK1/2 activation in BAEC (western blot); type: cell-based, bovine; settings: serum deprived BAEC, 15 minutes at 37° C.
Description: Effect of QK and VEGF15 on ERK1/2 activation. Serum deprived BAEC were treated with QK (a) or with VEGF 15 (b) in absence or in presence of VEGF165 (100 ng/ml) for 15 minutes at 37° C. and then dissolved in RIPA-SDS buffer. Total ERK1/2 and the phosphorylated form of ERK1/2 were visualized by specific antibodies.
Western blot. Cells were plated on six-well dishes and serum starved overnight. On the next day, cells were treated with different amount of peptide in absence or in presence of VEGF165 for 15 minutes at 37° C. and then dissolved in RIPA-SDS buffer (50 mM Tris-HCl (pH 7.5), 150 mM NaCl, 1% NP-40, 0.25% deoxycholate, 9.4 mg/50 ml sodium orthovanadate, […]). In some experiments, total KDR and Flt-1 were immunoprecipitated from an equal amount of whole-cell protein extracts using protein A/G agarose beads conjugated with antibodies raised against total KDR or Flt-1 (R&D). Proteins from whole-cell extracts or immunocomplexes were resolved by PAGE and transferred to nitrocellulose. Total extracellular signal-regulated kinase 1 and 2 (ERK1/2), serine-tyrosin phosphorylated ERK1/2, phospho-tyrosine (Cell signaling) and phospho-RB (p-RB) (Santacruz) were visualized by specific antibodies, anti-rabbit HRP-conjugated secondary antibody (Santacruz) and standard chemiluminescence (Pierce).
Activation of the proliferative intracellular pathways. We then explored whether QK is able to start the pathways of endothelial cell activation. It is well established that angiogenesis modulate by VEGF is largely ERK1/2 dependent, leading to DNA synthesis and cell proliferation (7). Accordingly, we assessed the effects of QK on this kinase. […] To verify whether ERK1/2 activation to QK results in cell proliferation, we studied cell proliferation indicators such as cell number, DNA synthesis and cyclin activation.

[3] = test system: WKY rats; assay: Ischemic hindlimb model, digital angiographies and blood flow determination; type: in vivo, rat; settings: 14 days

Sequence: KVKFMDVYQRSYCHP (KVKFMDVYQRSYCHP-NH2) [VEGF15, natural peptide reproducing the VEGF helix 17-25, used as control peptide]
- binding to the VEGF receptor [1]: does not bind to the receptor
- ERK1/2 activation [2]: had no effect on ERK activation
- BEADS Ischemic to non ischemic ([3]; dyed beads dilution, muscle ratio, infusion 10^-7 M): 0.59 ± 0.15
- ANGIOGRAPHY Number of TFC ([3]; ischemic hindlimb, chronic intrafemoral artery infusion 10^-7 M): 38 ± 2
